Assay [1] relates to Pseudomonas aeruginosa. Nature of the assay: Antibacterial activity against Pseudomonas aeruginosa ATCC 27853 at 25 ug/disk after 24 hrs by agar diffusion assay. In kind it is functional. As to conditions: ATCC 27853, 24 h, read-out: DIZ.
The subject of assay [2] is Staphylococcus aureus. In words: Antibacterial activity against Staphylococcus aureus ATCC 25923 at 25 ug/disk after 24 hrs by agar diffusion assay. The note with it: ATCC 25923, 24 h, read-out: DIZ. In kind it is functional.
The test system of assay [3] is Escherichia coli. In words: Antibacterial activity against Escherichia coli ATCC 25922 at 25 ug/disk after 24 hrs by agar diffusion assay. As to conditions: ATCC 25922, 24 h, read-out: DIZ. The class given is functional.
In assay [4] the test system is Micrococcus luteus. In words: Antibacterial activity against Sarcina lutea ATCC 9341 at 25 ug/disk after 24 hrs by agar diffusion assay. As to conditions: ATCC 9341, 24 h, read-out: DIZ. In kind it is functional. On the technique in general: A growth-free zone around the sample is the usual read-out of agar diffusion tests.
In assay [5] the test system is Bacillus cereus. Nature of the assay: Antibacterial activity against Bacillus cereus ATCC 14579 at 25 ug/disk after 24 hrs by agar diffusion assay. The class given is functional. The note with it: ATCC 14579, 24 h, read-out: DIZ.
Assay [6] concerns Bacillus subtilis. In words: Antibacterial activity against Bacillus subtilis at 25 ug/disk after 24 hrs by agar diffusion assay. The class given is functional. As to conditions: read-out: DIZ.
Assay [7] relates to Micrococcus luteus. Nature of the assay: Antibacterial activity against Sarcina lutea ATCC 9341 at 10 mg/ml after 24 hrs by agar diffusion assay. In kind it is functional. As to conditions: ATCC 9341, 24 h, read-out: DIZ.
The subject of assay [8] is Staphylococcus aureus. In words: Antibacterial activity against Staphylococcus aureus ATCC 25923 at 10 mg/ml after 24 hrs by agar diffusion assay. In kind it is functional. As to conditions: ATCC 25923, 24 h, read-out: DIZ.
Assay [9] has as its system [Candida] sake. In words: Antifungal activity against Candida sake at 10 mg/ml after 48 hrs by agar diffusion assay. In kind it is functional. The note with it: Fermentozyma sake, read-out: DIZ.
The test system of assay [10] is Pseudomonas aeruginosa. In words: Antibacterial activity against Pseudomonas aeruginosa ATCC 27853 at 10 mg/ml after 24 hrs by agar diffusion assay. The class given is functional. The note with it: ATCC 27853, 24 h, read-out: DIZ.
Assay [11] relates to Bacillus subtilis. Nature of the assay: Antibacterial activity against Bacillus subtilis at 10 mg/ml after 24 hrs by agar diffusion assay. As to conditions: read-out: DIZ. In kind it is functional.
For assay [12], the system named is Candida albicans. Nature of the assay: Antifungal activity against Candida albicans ATCC 10231 at 10 mg/ml after 48 hrs by agar diffusion assay. In kind it is functional. As to conditions: ATCC 10231, 48 h, read-out: DIZ.
Assay [13] has as its system Escherichia coli. Nature of the assay: Antibacterial activity against Escherichia coli ATCC 25922 at 10 mg/ml after 24 hrs by agar diffusion assay. The class given is functional. The note with it: ATCC 25922, 24 h, read-out: DIZ.
The test system of assay [14] is Bacillus cereus. Nature of the assay: Antibacterial activity against Bacillus cereus ATCC 14579 at 10 mg/ml after 24 hrs by agar diffusion assay. The class given is functional. The note with it: ATCC 14579, 24 h, read-out: DIZ.
For assay [15], the system named is Nakaseomyces glabratus. Nature of the assay: Antifungal activity against Candida glabrata ATCC MYA 2950 at 10 mg/ml after 48 hrs by agar diffusion assay. As to conditions: ATCC MYA 2950, 48 h, read-out: DIZ. In kind it is functional.
Assay [16] concerns Staphylococcus aureus. In words: Antibacterial activity against Staphylococcus aureus ATCC 25923 at 30 ug/disk after 24 hrs by agar diffusion assay. The class given is functional. As to conditions: ATCC 25923, 24 h, read-out: DIZ.
For assay [17], the system named is Escherichia coli. In words: Antibacterial activity against Escherichia coli ATCC 25922 at 30 ug/disk after 24 hrs by agar diffusion assay. The class given is functional. As to conditions: ATCC 25922, 24 h, read-out: DIZ.
For assay [18], the system named is Bacillus cereus. In words: Antibacterial activity against Bacillus cereus ATCC 14579 at 30 ug/disk after 24 hrs by agar diffusion assay. The class given is functional. As to conditions: ATCC 14579, 24 h, read-out: DIZ.
The subject of assay [19] is Micrococcus luteus. Nature of the assay: Antibacterial activity against Sarcina lutea ATCC 9341 at 30 ug/disk after 24 hrs by agar diffusion assay. The class given is functional. The note with it: ATCC 9341, 24 h, read-out: DIZ.
Assay [20] concerns Bacillus subtilis. In words: Antibacterial activity against Bacillus subtilis at 30 ug/disk after 24 hrs by agar diffusion assay. The class given is functional. The note with it: read-out: DIZ.
For assay [21], the system named is Pseudomonas aeruginosa. In words: Antibacterial activity against Pseudomonas aeruginosa ATCC 27853 at 30 ug/disk after 24 hrs by agar diffusion assay. In kind it is functional. As to conditions: ATCC 27853, 24 h, read-out: DIZ.
For assay [22], the system named is [Candida] sake. Nature of the assay: Antifungal activity against Candida sake 100 mg/disk after 48 hrs by agar diffusion assay. In kind it is functional, organism-based.
For assay [23], the system named is Nakaseomyces glabratus. In words: Antifungal activity against Candida glabrata ATCC MYA 2950 100 mg/disk after 48 hrs by agar diffusion assay. The class given is functional, organism-based.
Assay [24] concerns Candida albicans. Nature of the assay: Antifungal activity against Candida albicans ATCC 10231 at 100 mg/disk after 48 hrs by agar diffusion assay. The class given is functional, organism-based.

For the molecule `CC1(C)S[C@@H]2[C@H](NC(=O)[C@H](N)c3ccccc3)C(=O)N2[C@H]1C(=O)O` [AMPICILLIN], the zone of inhibition at 25 µg/disc came to 0 mm with Pseudomonas aeruginosa [1]; 25 mm in the assay with Staphylococcus aureus [2]; 20 mm in the assay with Escherichia coli [3]; 30 mm in the assay with Micrococcus luteus [4]; 0 mm with Bacillus cereus [5]; 25 mm in the assay on Bacillus subtilis [6].

In the case of `C=C1CC[C@H]2C(C)(C)CCC[C@]2(C)[C@H]1CC(=O)Nc1cnccn1`, the zone of inhibition at 10000 µg/mL in the assay with Micrococcus luteus [7] amounted to 0 mm; with Staphylococcus aureus [8], 15 mm; in [Candida] sake [9], 0 mm; in the assay on Pseudomonas aeruginosa [10], 0 mm; with Bacillus subtilis [11] it was 0 mm; with Candida albicans [12], 0 mm. Besides, the zone of inhibition at 10000 µg/mL was found to be 0 mm in the assay on Escherichia coli [13], 10 mm with Bacillus cereus [14] and 0 mm in the assay on Nakaseomyces glabratus [15].

Consider `O=C(N[C@H](CO)[C@H](O)c1ccc([N+](=O)[O-])cc1)C(Cl)Cl` [CHLORAMPHENICOL], for which the zone of inhibition at 30 µg/disc came out at 25 mm in the assay with Staphylococcus aureus [16]; 29 mm in the assay on Escherichia coli [17]; 28 mm in the assay with Bacillus cereus [18]; 30 mm in the assay with Micrococcus luteus [19]; 31 mm in the assay on Bacillus subtilis [20]; 19 mm in the assay with Pseudomonas aeruginosa [21].

In the case of NYSTATIN, the figures for the inhibition zone (IZ) (in assay [Candida] sake [22]; with Nakaseomyces glabratus [23]; in the assay with Candida albicans [24]) were 31 mm, 26 mm and 29 mm, respectively.

With `C=C1CC[C@H]2C(C)(C)CCC[C@]2(C)[C@H]1CC(=O)Nc1ccncn1`, the zone of inhibition at 10000 µg/mL in the assay on Micrococcus luteus [7] is 18 mm; with Staphylococcus aureus [8] it was 15 mm; in assay [Candida] sake [9], 0 mm; in the assay on Pseudomonas aeruginosa [10], 0 mm; with Bacillus subtilis [11] it was 7 mm; in the assay on Candida albicans [12] it was 0 mm. Further, the zone of inhibition at 10000 µg/mL with Escherichia coli [13] was 12 mm; in the assay on Bacillus cereus [14], 10 mm; with Nakaseomyces glabratus [15], 0 mm.

For `C=C1CC[C@H]2C(C)(C)CCC[C@]2(C)[C@H]1CC(=O)N(C(=O)NC1CCCCC1)C1CCCCC1`, the zone of inhibition at 10000 µg/mL in the assay with Micrococcus luteus [7] was found to be 0 mm; in the assay with Staphylococcus aureus [8], 19 mm; in assay [Candida] sake [9] it was 0 mm; in the assay with Pseudomonas aeruginosa [10] it was 0 mm; in the assay on Bacillus subtilis [11], 0 mm; in the assay on Candida albicans [12], 0 mm. Also, the zone of inhibition at 10000 µg/mL was found to be 0 mm with Escherichia coli [13], 11 mm in the assay with Bacillus cereus [14] and 0 mm in the assay on Nakaseomyces glabratus [15].

`C=C1CC[C@H]2C(C)(C)CCC[C@]2(C)[C@H]1CC(=O)N(C(=O)C[C@H]1C(=C)CC[C@H]2C(C)(C)CCC[C@]12C)c1ncccn1`: the zone of inhibition at 10000 µg/mL in the assay with Micrococcus luteus [7] stood at 0 mm; with Staphylococcus aureus [8], 10 mm; in assay [Candida] sake [9], 0 mm; in the assay on Pseudomonas aeruginosa [10] it was 10 mm; in the assay on Bacillus subtilis [11], 0 mm; with Candida albicans [12], 0 mm. For the same molecule, the zone of inhibition at 10000 µg/mL in the assay with Escherichia coli [13], in the assay on Bacillus cereus [14] and with Nakaseomyces glabratus [15] was 0 mm each time.

`C=C1CC[C@H]2C(C)(C)CCC[C@]2(C)[C@H]1CC(=O)Nc1ncccn1`: the zone of inhibition at 10000 µg/mL with Micrococcus luteus [7] is 19 mm; with Staphylococcus aureus [8], 14 mm; in [Candida] sake [9], 0 mm; in the assay with Pseudomonas aeruginosa [10], 0 mm; in the assay on Bacillus subtilis [11], 7 mm; with Candida albicans [12] it was 0 mm. Moreover, the zone of inhibition at 10000 µg/mL stood at 10 mm in the assay on Escherichia coli [13], 12 mm in the assay with Bacillus cereus [14] and 0 mm in the assay with Nakaseomyces glabratus [15].

For the origin of these results see ChEMBL document CHEMBL2429845, “Design, synthesis, and antimicrobial activity of some novel homodrimane sesquiterpenoids with diazine skeleton” (2013).
